Experimental data taken from US9777008B2, “PRMT5 inhibitors and uses thereof” (Epizyme, Inc., priority 2012, dated 2017).
pIC50: −log10 of the molar value.

Target: PRMT5/MEP50 (Homo sapiens (Human), UniProt O14744)
Assay: PRMT5 Biochemical Assay (PRMT5/MEP50 enzyme assay on peptide substrate, 3H-SAM Flashplate)
How it was run: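 FLAG-PRMT5/His-MEP50 from Sf9 cells, 4 nM, with 40 nM biotinylated H4(1-15) peptide and 75 nM 3H-SAM in 20 mM Bicine pH 7.6, 1% DMSO; compound preincubated 30 min at 25 °C. Stopped with 600 uM cold SAM; 3H-peptide captured on streptavidin Flashplate, counted; % inhibition versus DMSO and 100 uM SAH controls, IC50 by 3- or 4-parameter fit.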

PRMT5/MEP50, sequence (O14744 other isoform, or with tags, fused parts or gaps): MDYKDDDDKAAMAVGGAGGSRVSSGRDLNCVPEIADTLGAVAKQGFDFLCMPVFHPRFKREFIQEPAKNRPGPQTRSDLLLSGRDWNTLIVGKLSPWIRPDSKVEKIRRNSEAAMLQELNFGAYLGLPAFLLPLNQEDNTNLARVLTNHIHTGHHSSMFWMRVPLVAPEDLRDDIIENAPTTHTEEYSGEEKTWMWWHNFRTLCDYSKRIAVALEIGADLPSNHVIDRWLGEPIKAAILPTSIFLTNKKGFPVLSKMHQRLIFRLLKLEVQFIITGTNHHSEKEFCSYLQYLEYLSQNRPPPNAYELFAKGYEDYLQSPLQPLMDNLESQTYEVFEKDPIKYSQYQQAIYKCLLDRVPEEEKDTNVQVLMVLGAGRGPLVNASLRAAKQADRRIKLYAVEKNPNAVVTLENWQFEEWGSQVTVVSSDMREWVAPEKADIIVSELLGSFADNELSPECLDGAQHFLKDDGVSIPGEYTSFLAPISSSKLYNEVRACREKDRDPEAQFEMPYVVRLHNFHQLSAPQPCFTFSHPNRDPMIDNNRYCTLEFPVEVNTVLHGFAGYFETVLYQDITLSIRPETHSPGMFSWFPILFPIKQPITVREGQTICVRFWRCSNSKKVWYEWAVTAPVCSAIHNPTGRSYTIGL
PRMT5/MEP50, sequence (Q9BQA1 other isoform, or with tags, fused parts or gaps partner): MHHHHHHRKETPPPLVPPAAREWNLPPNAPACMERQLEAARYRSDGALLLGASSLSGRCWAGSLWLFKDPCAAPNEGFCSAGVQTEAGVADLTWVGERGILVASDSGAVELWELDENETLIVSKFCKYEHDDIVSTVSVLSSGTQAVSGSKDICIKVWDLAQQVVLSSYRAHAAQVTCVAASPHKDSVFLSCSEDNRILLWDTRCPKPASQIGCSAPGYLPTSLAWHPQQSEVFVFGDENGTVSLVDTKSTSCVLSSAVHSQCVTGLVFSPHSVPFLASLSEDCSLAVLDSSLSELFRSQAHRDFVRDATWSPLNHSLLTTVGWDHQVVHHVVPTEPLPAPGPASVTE

Molecule | pIC50
N-(3-(3-(3,4-dihydroisoquinolin-2(1H)-yl)-2-hydroxypropoxy)phenyl)pyrimidine-5-carboxamide [Compound 145] | 6.00 to 7.00
OC(COc1cccc(-c2ccc3cn[nH]c3c2)c1)CN1CCc2ccccc2C1 (centres unmarked) [Compound 58, 1-(3-(1H-indazol-6-yl)phenoxy)-3-(3,4-dihydroisoquinolin-2(1H)-yl)propan-2-ol] | 6.00 to 7.00
